The values that follow come from ChEMBL document CHEMBL2380233, “Addition of artificial salt bridge by Ile646Lys mutation in gp41 coiled-coil domain regulates 6-helical bundle formation” (Bioorg Med Chem Lett, 2013).

Broadly, the IC50 is the concentration that inhibits the measured activity by half. Read a high IC50 as weaker potency.

For experiment [1], the system named is Human immunodeficiency virus 1. Nature of the experiment: Antiviral activity against HIV1 CNE3 infected in HEK293T cells by luciferase reporter gene assay. It is filed as functional, organism-based. The conditions noted are these: Human immunodeficiency virus 1, CNE3, HEK-293T. For orientation: In a reporter assay the amount or activity of a reporter protein is the signal.

In experiment [2] the test system is Human immunodeficiency virus 1. Nature of the experiment: Antiviral activity against HIV1 SF162 infected in HEK293T cells by luciferase reporter gene assay. It is filed as functional, cell-based. The conditions noted are these: Human immunodeficiency virus 1, SF162 ISOLATE, HEK-293T.
The subject of experiment [3] is Human immunodeficiency virus 1. As to the kind of experiment: Antiviral activity against HIV1 JRFL infected in HEK293T cells by luciferase reporter gene assay. It counts as functional, organism-based. The conditions noted are these: Human immunodeficiency virus 1, JRFL, HEK-293T.
For experiment [4], the system named is Human immunodeficiency virus 1. Nature of the experiment: Antiviral activity against HIV1 HXB2 infected in HEK293T cells by luciferase reporter gene assay. It counts as functional, organism-based. The conditions noted are these: Human immunodeficiency virus 1, HXB2, HEK-293T.

As for `CC[C@H](C)[C@H](NC(=O)[C@H](CCC(=O)O)NC(=O)[C@H](CCCNC(=N)N)NC(=O)[C@H](CC(=O)O)NC(=O)[C@H](Cc1c[nH]c2ccccc12)NC(=O)[C@H](CCC(=O)O)NC(=O)[C@H](CCSC)NC(=O)[C@H](Cc1c[nH]c2ccccc12)NC(C)=O)C(=O)N[C@@H](CC(N)=O)C(=O)N[C@@H](CC(N)=O)C(=O)N[C@@H](Cc1ccc(O)cc1)C(=O)N[C@H](C(=O)N[C@@H](CO)C(=O)N[C@@H](CC(C)C)C(=O)N[C@H](C(=O)N[C@@H](Cc1cnc[nH]1)C(=O)N[C@@H](CO)C(=O)N[C@@H](CC(C)C)C(=O)N[C@@H](CCCCN)C(=O)N[C@@H](CCC(=O)O)C(=O)N[C@@H](CCC(=O)O)C(=O)N[C@@H](CO)C(=O)N[C@@H](CCC(N)=O)C(=O)N[C@@H](CC(N)=O)C(=O)N[C@@H](CCC(N)=O)C(=O)N[C@@H](CCC(N)=O)C(=O)N[C@@H](CCC(=O)O)C(=O)N[C@@H](CCCCN)C(=O)N[C@@H](CC(N)=O)C(=O)N[C@@H](CCC(=O)O)C(=O)N[C@@H](CCC(N)=O)C(=O)N[C@@H](CCC(=O)O)C(=O)N[C@@H](CC(C)C)C(=O)N[C@@H](CC(C)C)C(N)=O)[C@@H](C)CC)[C@@H](C)O`, the half-inhibitory concentration (IC50) in experiment [1] was 550 nM; in experiment [2] it was 520 nM; in experiment [3], 920 nM; in experiment [4] it was 94 nM.

For `CC[C@H](C)[C@H](NC(=O)[C@H](CCC(=O)O)NC(=O)[C@H](CCCNC(=N)N)NC(=O)[C@H](CC(=O)O)NC(=O)[C@H](Cc1c[nH]c2ccccc12)NC(=O)[C@H](CCC(=O)O)NC(=O)[C@H](CCSC)NC(=O)[C@H](Cc1c[nH]c2ccccc12)NC(C)=O)C(=O)N[C@@H](CC(N)=O)C(=O)N[C@@H](CC(N)=O)C(=O)N[C@@H](Cc1ccc(O)cc1)C(=O)N[C@H](C(=O)N[C@@H](CO)C(=O)N[C@@H](CC(C)C)C(=O)N[C@H](C(=O)N[C@@H](Cc1cnc[nH]1)C(=O)N[C@@H](CO)C(=O)N[C@@H](CC(C)C)C(=O)N[C@@H](CCC(=O)O)C(=O)N[C@@H](CCC(=O)O)C(=O)N[C@@H](CCC(=O)O)C(=O)N[C@@H](CO)C(=O)N[C@@H](CCC(N)=O)C(=O)N[C@@H](CC(N)=O)C(=O)N[C@@H](CCC(N)=O)C(=O)N[C@@H](CCC(N)=O)C(=O)N[C@@H](CCC(=O)O)C(=O)N[C@@H](CCCCN)C(=O)N[C@@H](CC(N)=O)C(=O)N[C@@H](CCC(=O)O)C(=O)N[C@@H](CCC(N)=O)C(=O)N[C@@H](CCC(=O)O)C(=O)N[C@@H](CC(C)C)C(=O)N[C@@H](CC(C)C)C(N)=O)[C@@H](C)CC)[C@@H](C)O`, the IC50 in experiment [1] was 470 nM; in experiment [2], 1430 nM; in experiment [3], 1190 nM; in experiment [4], 1310 nM.
